pKi: −log10 of the molar value. “And” between values parts separate entries of the source, which are not always exact repeats. Identical values can stand only once.
Molecular target: T1, human GCGR (Homo sapiens, UniProt P47871)
T1 construct: expressed in transfected cells; host or cells: HEK293 (hGluc-1HEK), pcDNA3.1, G418 selection
Assay: Cellular functional assay, cAMP readout (glucagon-stimulated cAMP, LANCE TR-FRET)
Format: cell-based
Settings: HEK293 cells stably expressing full-length human GCGR; glucagon 100 pM; IC50 converted to Ki; read-out: Inhibition of cAMP Ki
Description: IC50 Values in Cellular Functional Assays: cAMP Readout
Full-length human GCGR (Accession Number: NM000160) subcloned into pcDNA3.1 was stably transfected into HEK293 cells (hGluc-1HEK) and maintained under G418 selection (500 μg/mL). Cell cultures were maintained in DMEM/F12 media supplemented with 10% FBS and 1% GlutaMax™ Supplement (Available from ThermoFisher Scientific, catalog #35050061). Glucagon stimulated cAMP was quantified using LANCE technology as per manufacturer instructions. On the day of the experiment, spent media was removed and cells were washed with Hank's Buffered Saline solution (HBSS), and cells harvested with non-enzymatic cell dissociation solution, then washed once with HBSS. Cells were re-suspended in stimulation buffer at a concentration of 0.83×10^6 cells/ml and cAMP detection antibody was added. 6 μl/well of this solution was then dispensed in a 384 well plate (cell density 5000 cells/well). Test compound was serially diluted in DMSO and 50 nl were dispensed on top of the cell solution and allowed to incubate for 30 minutes. 6 μl of a 2× glucagon solution (final concentration in assay 100 pM) was then added and the reaction was terminated after 5 minutes with the addition of detection mix. The resulting mixture was incubated, protected from light for 1.5 h. cAMP levels were quantified by TR-FRET in an EnVision instrument against a known standard. IC50's were generated by using a non-linear regression macro driven in Excel and converted to Ki values.

T1 sequence (P47871 26-477): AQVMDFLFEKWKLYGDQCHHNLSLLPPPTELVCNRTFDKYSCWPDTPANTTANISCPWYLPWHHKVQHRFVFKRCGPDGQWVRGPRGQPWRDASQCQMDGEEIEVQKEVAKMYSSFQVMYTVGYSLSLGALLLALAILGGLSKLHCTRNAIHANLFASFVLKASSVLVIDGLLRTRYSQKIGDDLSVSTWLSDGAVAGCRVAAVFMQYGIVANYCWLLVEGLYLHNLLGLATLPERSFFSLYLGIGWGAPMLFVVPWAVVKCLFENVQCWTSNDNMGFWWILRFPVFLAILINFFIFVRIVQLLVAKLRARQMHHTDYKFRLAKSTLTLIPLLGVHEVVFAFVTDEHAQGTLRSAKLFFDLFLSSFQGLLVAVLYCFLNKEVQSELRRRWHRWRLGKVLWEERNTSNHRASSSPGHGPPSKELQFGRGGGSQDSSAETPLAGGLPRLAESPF

SMILES | pKi
CC(C)CC(c1ccc(C(=O)NCCC(=O)O)nc1)n1ncc2cc(-c3cc(Cl)cc(Cl)c3)ccc21 (stereo not drawn) [compound 119] | < 5.59
O=C(O)CCNC(=O)c1ccc(C(CC2CCC2)n2ncc3cc(-c4ccc(C(F)(F)F)cc4)ccc32)cn1 (stereo not drawn) [compound 251] | 6.19
Cc1cc(C(F)(F)F)ccc1-c1ccc2nn([C@@H](CC(C)C)c3ccc(C(=O)NCCC(=O)O)cc3)cc2c1C [Compound #156, 3-[[4-[(1S)-3-Methyl-1-[4-methyl-5-[2-methyl-4-(trifluoromethyl)phenyl]indazol-2-yl]butyl]benzoyl]amino]propanoic acid] | 7.66
Cc1cc2c(cnn2C(CC(C)C)c2ccc(C(=O)NCCC(=O)O)cc2)cc1-c1ccc(C(F)(F)F)cc1 (stereo not drawn) [Compound #25, 3-[[4-[3-Methyl-1-[6-methyl-5-[4-(trifluoromethyl)phenyl]indazol-1-yl]butyl]benzoyl]amino]propanoic acid] | 6.99
Cc1ccc(-c2ccc3nn(C(CC(C)C)c4ccc(C(=O)NCCC(=O)O)cc4)cc3c2C)c(Cl)c1 (stereo not drawn) [Compound #148, 3-(4-(1-(5-(2-Chloro-4-methylphenyl)-4-methyl-2H-indazol-2-yl)-3-methylbutyl)benzamido)propanoic acid] | 7.24
CC(C)CC(c1ccc(C(=O)NCCC(=O)O)cc1)n1ncc2cc(-c3cc4ccccc4o3)ccc21 (stereo not drawn) [compound 77] | 6.87
Cc1cc(-c2ccc(C(C)(C)C)cc2)cc2cnn(C(CC(C)C)c3ccc(C(=O)NCCC(=O)O)nc3)c12 (stereo not drawn) [compound 72] | < 5.59
O=C(O)CCNC(=O)c1ccc(C(CCC(F)(F)F)n2ncc3cc(-c4ccc(C(F)(F)F)cc4)ccc32)cc1 (stereo not drawn) [Compound #75, 3-[[4-[4,4,4-Trifluoro-1-[5-[4-(trifluoromethyl)phenyl]indazol-1-yl]butyl]benzoyl]amino]propanoic acid] | 6.63
O=C(O)CCNC(=O)c1ccc(C(CCC(F)(F)C(F)(F)F)n2cc3cc(-c4ccc(C(F)(F)F)cc4)ccc3n2)cc1 (stereo not drawn) [compound 65] | 6.62
Cc1cc(Cl)ccc1-c1ccc2c(cnn2C(CC(C)(C)C)c2ccc(C(=O)NCCC(=O)O)nc2)c1 (stereo not drawn) [compound 238] | 6.68
CC(C)CC(c1ccc(C(=O)NCCC(=O)O)cc1)n1cc2cc(-c3ccc(C(F)(F)F)cc3Cl)ccc2n1 (stereo not drawn) [Compound #225, 3-(4-(1-(5-(2-Chloro-4-(trifluoromethyl)phenyl)-2H-indazol-2-yl)-3-methylbutyl)benzamido)propanoic acid] | 6.82
CC(C)CC(c1ccc(C(=O)NCCC(=O)O)cc1)n1ncc2cc(-c3cccnc3)ccc21 (stereo not drawn) [compound 219] | < 5.28
CC(C)(F)CC(c1ccc(C(=O)NCCC(=O)O)cc1)n1ncc2cc(-c3ccc(C(F)(F)F)cc3)ccc21 (stereo not drawn) [Compound #185, 3-(4-(3-Fluoro-3-methyl-1-(5-(4-(trifluoromethyl)phenyl)-1H-indazol-1-yl)butyl)benzamido)propanoic acid] | 6.37
Cc1cc(Cl)ccc1-c1ccc2nn(C(CC(C)C)c3ccc(C(=O)NCCC(=O)O)cc3)cc2c1C (stereo not drawn) [Compound #20, 3-(4-(1-(5-(4-Chloro-2-methylphenyl)-4-methyl-2H-indazol-2-yl)-3-methylbutyl)benzamido)propanoic acid] | 7.60
CC(C)CC(c1ccc(C(=O)NCCC(=O)O)cc1)n1ncc2cc(-c3cnn(C)c3)ccc21 (stereo not drawn) [Compound #12, 3-(4-(3-Methyl-1-(5-(1-methyl-1H-pyrazol-4-yl)-1H-indazol-1-yl)butyl)benzamido)propanoic acid] | 5.64
CCCC(c1ccc(C(=O)NCCC(=O)O)cc1)n1ncc2cc(-c3ccc(C(C)(C)C)cc3)ccc21 (stereo not drawn) [Compound #56, 3-(4-(1-(5-(4-(tert-Butyl)phenyl)-1H-indazol-1-yl)butyl)benzamido)propanoic acid] | 6.19
O=C(O)CCNC(=O)c1ccc(C(CC2CC2)n2cc3cc(-c4ccc(C(F)(F)F)cc4)ccc3n2)cc1 (stereo not drawn) [compound 139] | 6.70
CCOc1c(-c2ccc(C(F)(F)F)cc2Cl)ccc2c1cnn2C(CC(C)C)c1ccc(C(=O)NCCC(=O)O)nc1 (stereo not drawn) [Compound #179, 3-(5-(1-(5-(2-Chloro-4-(trifluoromethyl)phenyl)-4-ethoxy-1H-indazol-1-yl)-3-methylbutyl)picolinamido)propanoic acid] | 7.62
CC(C)CCn1cc(-c2ccc3nn(C(CC(C)C)c4ccc(C(=O)NCCC(=O)O)cc4)cc3c2)cn1 (stereo not drawn) [Compound #17] | < 5.28
CCCC(c1ccc(C(=O)NCCC(=O)O)cc1)n1cc2cc(-c3ccc(C(F)(F)F)cc3)ccc2n1 (stereo not drawn) [compound 91] | 6.90

SMILES | pKi
Cc1cc(C(F)(F)F)ccc1-c1ccc2c(cnn2C(CC(C)C)c2ccc(C(=O)NCCC(=O)O)cc2)c1Cl (stereo not drawn) [Compound #135, 3-(4-(1-(4-Chloro-5-(2-methyl-4-(trifluoromethyl)phenyl)-1H-indazol-1-yl)-3-methylbutyl)benzamido)propanoic acid] | 7.00
CC(C)CC(c1ccc(C(=O)NCCC(=O)O)cc1)n1cc2cc(-c3ccc4ncccc4c3)ccc2n1 (stereo not drawn) [compound 121] | 6.15
Cc1cc2c(cnn2C(CC(C)C)c2ccc(C(=O)NCCC(=O)O)cc2)cc1-c1cc2ccccc2s1 (stereo not drawn) [Compound #174, 3-[[4-[1-[5-(Benzothiophen-2-yl)-6-methyl-indazol-1-yl]-3-methyl-butyl]benzoyl]amino]propanoic acid] | 6.72
CCOc1c(-c2ccc(C(F)(F)F)cc2C)ccc2nn(C(CC(C)C)c3ccc(C(=O)NCCC(=O)O)nc3)cc12 (stereo not drawn) [Compound #207, 3-(5-(1-(4-Ethoxy-5-(2-methyl-4-(trifluoromethyl)phenyl)-2H-indazol-2-yl)-3-methylbutyl)picolinamido)propanoic acid] | 7.77
Cc1ccc(-c2ccc3nn(C(CC(C)C)c4ccc(C(=O)NCCC(=O)O)cc4)cc3c2C)c(C)c1 (stereo not drawn) [Compound #143, 3-(4-(1-(5-(2,4-Dimethylphenyl)-4-methyl-2H-indazol-2-yl)-3-methylbutyl)benzamido)propanoic acid] | 7.62
CC(C)CC(c1ccc(C(=O)NCCC(=O)O)cc1)n1ncc2cc(-c3cc4ccccc4s3)ccc21 (stereo not drawn) [compound 73] | 7.21
COc1c(-c2ccc(C(F)(F)F)cc2C)ccc2nn(C(CC(C)C)c3ccc(C(=O)NCCC(=O)O)nc3)cc12 (stereo not drawn) [Compound #236, 3-(5-(1-(4-Methoxy-5-(2-methyl-4-(trifluoromethyl)phenyl)-2H-indazol-2-yl)-3-methylbutyl)picolinamido)propanoic acid] | 7.92
CC(C)(F)CC(c1ccc(C(=O)NCCC(=O)O)cc1)n1cc2cc(-c3ccc(C(F)(F)F)cc3)ccc2n1 (stereo not drawn) [Compound #256, 3-(4-(3-Fluoro-3-methyl-1-(5-(4-(trifluoromethyl)phenyl)-2H-indazol-2-yl)butyl)benzamido)propanoic acid] | 6.70
CC(C)CC(c1ccc(C(=O)NCCC(=O)O)cc1)n1cc2c(Cl)c(-c3ccc(C(F)(F)F)cc3)ccc2n1 (stereo not drawn) [Compound #147, 3-(4-(1-(4-Chloro-5-(4-(trifluoromethyl)phenyl)-2H-indazol-2-yl)-3-methylbutyl)benzamido)prop-anoic acid] | 7.40
Cc1cc(C(F)(F)F)ccc1-c1ccc2nn(C(CC(C)C)c3ccc(C(=O)NCCC(=O)O)nc3)cc2c1C (stereo not drawn) [Compound #155, 3-(5-(3-Methyl-1-(4-methyl-5-(2-methyl-4-(trifluoromethyl)phenyl)-2H-indazol-2-yl)butyl)picolinamido)propanoic acid] | 8.05
CC(C)CC(c1ccc(C(=O)NCCC(=O)O)nc1)n1ncc2cc(-c3ccc(OC(F)(F)F)cc3)ccc21 (stereo not drawn) [Compound #114, 3-(5-(3-Methyl-1-(5-(4-(trifluoromethoxy)phenyl)-1H-indazol-1-yl)butyl)picolinamido)propanoic acid] | 6.19
CC(C)CC(c1ccc(C(=O)NCCC(=O)O)cc1)n1ncc2cc(-c3ccc(C(C)(C)C)cc3)ccc21 (single isomer, unassigned) [Compound #37] | 7.21 and 6.89
CC(C)CC(c1ccc(C(=O)NCCC(=O)O)nc1)n1cc2cc(-c3cc4ccccc4s3)ccc2n1 (stereo not drawn) [compound 96] | 7.04
CCCCCCC(c1ccc(C(=O)NCCC(=O)O)nc1)n1ncc2cc(-c3ccc(Cl)cc3C)ccc21 (stereo not drawn) [compound 244] | 6.70
CC(C)CC(c1ccc(C(=O)NCCC(=O)O)cc1)n1cc2cc(-c3cc4ccccc4o3)ccc2n1 (stereo not drawn) [Compound #13] | 7.12
O=C(O)CCNC(=O)c1ccc(C(CC2CCC2)n2cc3cc(-c4ccc(C(F)(F)F)cc4)ccc3n2)cc1 (stereo not drawn) [compound 211] | 7.07
COc1c(-c2ccc(C(F)(F)F)cc2Cl)ccc2nn([C@@H](CC(C)C)c3ccc(C(=O)NCCC(=O)O)cc3)cc12 [Compound #150, 3-[[4-[(1S)-1-[5-[2-Chloro-4-(trifluoromethyl)phenyl]-4-methoxy-indazol-2-yl]-3-methyl-butyl]benzoyl]amino]propanoic acid] | 7.46
CC(C)CC(c1ccc(C(=O)NCCC(=O)O)nc1)n1cc2cc(-c3ccc(C(F)(F)F)cc3Cl)ccc2n1 (stereo not drawn) [Compound #53, 3-(5-(1-(5-(2-Chloro-4-(trifluoromethyl)phenyl)-2H-indazol-2-yl)-3-methylbutyl)picolinamido)pr-opanoic acid] | 6.98
Cc1ccc2sc(-c3ccc4c(cnn4C(CC(C)C)c4ccc(C(=O)NCCC(=O)O)cc4)c3)cc2c1 (stereo not drawn) [compound 230] | 6.55
